# Test results taken from the METLIN SMRT retention time set (Domingo-Almenara et al. 2019).
# Assay: gradient 5% acetonitrile 3 min, to 50% in 2 min, to 85% in 15 min, held 3 min, 100 µL/min
# Details: column: Zorbax Extend-C18 2.1 x 50 mm; eluents: water / acetonitrile, 0.1% formic acid
# How it was run: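 Over 3 months, pure standards in mixtures of ~100 molecules were run by HPLC coupled to a quadrupole time-of-flight mass spectrometer in positive and negative ionization mode. The column was a Zorbax Extend-C18 (2.1 × 50 mm, 1.8 μm) at 100 μL/min, eluted with water and acetonitrile each holding 0.1% formic acid, with 40 μL dead and 900 μL dwell volumes. Retention time was determined from adduct peaks chosen by software and checked manually.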
row,RP-LC retention time,Compound
1,828 s,O=C(Nc1ccc(N2CCOCC2)cc1)c1cn(-c2ccc(F)cc2)nn1
2,666 s,CCOc1cc(S(=O)(=O)Nc2ncccc2C)ccc1Br
3,704 s,CCN1CCn2c(nc3cc(C(=O)NCc4ccc(Br)cc4)ccc32)C1=O
4,950 s,O=c1c2cnc3nc(-c4ccccc4Cl)nn3c2ccn1CCc1c[nH]c2ccccc12
5,701 s,CCn1cnc(S(=O)(=O)N2CCC(C(=O)Nc3ccccc3)CC2)c1
6,760 s,CCn1cnc(S(=O)(=O)N2CCCC(C(=O)Nc3cccc(F)c3)C2)c1 (centres undefined)
7,755 s,O=C(c1[nH]nc2c1CCc1ccccc1-2)N1CCC(c2noc(-c3ccncc3)n2)C1 (centres undefined)
8,800 s,Cc1cc(C)c(C(=O)N2CCC(CC(=O)NCc3ccc(Cl)cc3)CC2)[nH]1
9,908 s,CC(C)c1nc2c(NC(=O)c3ccc(Br)o3)cccn2n1
10,1020 s,O=C(Cn1ccc2ccccc21)N1CCC(COCc2ccccc2)CC1
11,859 s,O=c1c2cc(-c3ccc(F)cc3)nn2ccn1CC(O)c1ccc(F)cc1 (centres undefined)
12,1040 s,O=c1ccc(-c2ccccc2Br)nn1Cc1nc(-c2ccc3c(c2)OCO3)no1
13,1200 s,CCc1noc(-c2ccc(SCC(=O)N3CCCCC3C)nc2)n1 (centres undefined)
14,1300 s,CC(C)Cn1c(=O)c2ccccc2n(Cc2nc(-c3ccc(C(F)(F)F)cc3)no2)c1=O
15,1280 s,CCc1ccc(-c2nc(-c3ccc4oc(C)nc4c3)no2)cc1
16,809 s,CCc1ccc(C(=O)N2CCC(n3c(-c4ccoc4)nc4cccnc43)C2)cc1 (centres undefined)
17,846 s,Cc1csc(-c2cc(S(=O)(=O)N3CCOCC3)cn2CC(=O)N2CCCCC2)n1
18,635 s,COc1cc(OC)cc(C(=O)NCC(=O)Nc2nc3ccccc3[nH]2)c1
19,866 s,Cc1c(C(=O)NC2CC2)cnn1-c1ccc(SCc2ccccc2)nn1
20,856 s,Cc1csc(-c2ccc(N3CCN(C(=O)COc4ccc(F)cc4)CC3)nc2)n1
21,689 s,c1ccc(OCc2nc(-c3ccc(-n4ccnc4)nc3)no2)cc1
22,878 s,CCOc1ccccc1CNC(=O)C1CCN(S(=O)(=O)c2ccc3c(c2)sc(=O)n3C)CC1

row,RP-LC retention time,Compound
1,795 s,COCC(=O)N(CC(=O)N1CCc2sccc2C1COc1ccccc1OC)C(C)C (centres undefined)
2,670 s,O=C(NCc1ccccc1Cl)C(=O)NCC1(CO)CC1
3,808 s,CCc1ccc(S(=O)(=O)N2CC(F)(F)C[C@H]2CN2CCc3ccccc3C2)cc1
4,1180 s,COC(=O)c1ccc2c(=O)n(-c3cc(C)cc(C)c3)c(N3CCSC3)nc2c1
5,932 s,CCN1C(=O)c2ccccc2Oc2ccc(C(=O)NCc3cc(OC)ccc3OC)cc21
6,584 s,Cc1cccc2nnc(N3CCN(C(=O)c4cccc(Cl)c4)CC3)n12
7,1090 s,Cc1nc(-c2cn(C)c3ncccc23)sc1C(=O)Nc1ccccc1Cl
8,740 s,Cc1ccc(C(=O)N2CCCCC2c2nncn2CC2CC2)s1 (centres undefined)
9,1140 s,CCOc1ccc2cccc(NC(=O)c3ccc(S(=O)(=O)N(C)C)cc3)c2n1
10,976 s,CC(C)c1ccc(CNC(=O)c2ccc3c(c2)N(C)C2CCCCN2C3=O)cc1 (centres undefined)
11,813 s,Cn1cc(Cl)c(C(=O)N2CCCC2c2ccccc2F)n1 (centres undefined)
12,948 s,CCOc1ccccc1NC(=O)CSc1nnc2c3cc(-c4ccc(F)cc4)nn3ccn12
13,838 s,CC1CCCN(c2nn3c(C(=O)NCCc4c[nH]c5ccccc45)cc(=O)nc3s2)C1 (centres undefined)
14,624 s,Cc1nnc(CNC(=O)OC(C)(C)C)n1-c1ccccc1
15,790 s,COCCN1CCC2(CC1)CN(Cc1ccc(F)cc1Cl)Cc1ccccc1O2
16,874 s,COC(=O)c1cccc(NC(=O)c2cnc3c(c2)c(=O)n(C)c(=O)n3-c2ccccc2)c1
17,783 s,Cc1ccc(CNC(=O)C2(C)CN(S(=O)(=O)c3ccccc3)CC(=O)N2C2CC2)cc1 (centres undefined)
18,868 s,CCN(CC)c1nc2ccsc2c(=O)n1CC(=O)NCc1ccc(F)cc1F
19,604 s,CC(C(=O)NCCCN1CCCCCC1)n1ccc2cc(S(=O)(=O)N3CCCCCC3)ccc21 (centres undefined)
20,824 s,CCOC(=O)c1c(C)[nH]c(C(=O)N2CCC(CC(=O)NCc3cccc(Cl)c3)CC2)c1C
21,585 s,Fc1ccc(-c2ccc(CNCCCn3ccnc3)o2)cc1Cl
22,1080 s,Cc1c(C(=O)NCc2ccc(OC(C)C)cc2)cc(-c2ccccc2)n1C

row,RP-LC retention time,Compound
1,591 s,COC(=O)CNC(=O)NCCn1c(-c2ccccc2)nc2cccnc21
2,791 s,O=C1CCCCC(Cc2ccccc2)(C(=O)NCCc2c[nH]c3ccccc23)N1 (centres undefined)
3,539 s,CNC(=O)[C@@H]1CN(C(=O)c2cnccn2)C[C@H]1c1n[nH]c(C)n1
4,898 s,CCCn1cc(S(=O)(=O)Nc2ccc(F)c(F)c2)c2cccnc21
5,819 s,Cc1cccc(-c2nc(NCCCN3CCOCC3)c3ccccc3n2)c1
6,1280 s,Cn1nccc1-c1cccc(-c2noc(-c3ccc(F)c(Cl)c3)n2)c1
7,830 s,Cc1cc(C2CCCN2C(=O)Nc2ccccc2Cl)on1 (centres undefined)
8,951 s,CCOc1ccc(S(=O)(=O)N2CCC(C(=O)N3CCCCCC3)CC2)cc1C
9,764 s,Cc1ccc(-c2nnc(-c3cccc(S(=O)(=O)NCC(=O)O)c3)o2)cc1
10,578 s,O=C(CN1C[C@H]2C[C@H](C1)[C@H]1CCCC(=O)N1C2)NCc1cccs1
11,834 s,COc1ccc(F)cc1S(=O)(=O)N1C[C@@H]2C[C@H]1C[C@@H]2NC(=O)c1cccs1
12,912 s,O=S(=O)(CCc1noc(-c2ccc3cc[nH]c3c2)n1)c1ccccc1
13,957 s,Cn1c(=O)c2cc(C(=O)NCC3CCCCC3)nn2c2ccccc21
14,936 s,O=C(c1ccc(Cl)cc1Cl)N1CCN(c2cc(-c3ccccc3)[nH]n2)CC1
15,1010 s,COC(=O)CNC(=O)Cc1c(C)nn(-c2nc(-c3ccc(Cl)cc3)cs2)c1C
16,764 s,O=C(c1ccc(F)cc1)N1CCN(c2cc(-c3cccs3)[nH]n2)CC1
17,834 s,Cc1ccc(CNC(=O)c2ccc(CN3CCN(C4CCCC4)C(=O)C3=O)cc2)cc1C
18,588 s,NC(=O)C1(N2CCCCC2)CCN(c2ncc(S(=O)(=O)c3ccccc3)c(N)n2)CC1
19,711 s,O=C(Cc1cccs1)NCc1nnnn1-c1ccc(F)c(F)c1
20,795 s,CCC1Oc2ccc(S(=O)(=O)N3CCC(C(=O)NCc4ccco4)CC3)cc2NC1=O (centres undefined)
21,721 s,CCNC(=O)N1CC(n2cc(C(=O)NCCC3=CCCCC3)nn2)C1
22,745 s,CSc1ccc(-c2nc3cnccn3c2Nc2ccc(C(=O)NC(C)C)cc2)cc1

row,RP-LC retention time,Compound
1,885 s,O=C(NCCSCc1ccco1)c1cc(-c2ccccn2)nc2ccccc12
2,1030 s,Cc1noc(C2CN(C(=O)Nc3cccc(F)c3C)CC23CCOCC3)n1 (centres undefined)
3,848 s,CCCc1noc(-c2ccc3nnc(CC(=O)Nc4ccc(F)cc4)n3c2)n1
4,842 s,Cc1ccc(Cl)cc1NC(=O)C1CCCN1S(=O)(=O)c1cc2c(cc1C)NC(=O)CO2 (centres undefined)
5,794 s,Cc1ccc(C)c(NC(=O)N2C[C@H](c3nc(-c4cccnc4)no3)[C@@H](C)C2)c1
6,595 s,CCOC(=O)CC1(NC(=O)N2CCCn3nc(-c4ccncc4)cc3C2)CCCCC1
7,901 s,CCCN(CC1CCOC1)C(=O)Nc1cc(Cl)ccc1C (centres undefined)
8,713 s,Cc1ccc(CNC(=O)N(C)CC2CCOCC2)cc1
9,858 s,Cc1cc2c(c(=O)n(-c3ccc(F)cc3)c(=O)n2CC(=O)Nc2ccccc2Cl)n1C
10,755 s,COc1ccc(C2NC(c3ccc(OC)c(OC)c3)C(C)C(=O)C2C)cc1OC (centres undefined)
11,761 s,Cc1nc2cc(N3CC(C(=O)NCc4ccc(Br)cc4)CC3=O)ccc2o1 (centres undefined)
12,607 s,O=S(=O)(c1cccc(-c2cn3ccccc3n2)c1)N1CCCC1
13,794 s,CCN1CCCn2cc(S(=O)(=O)Nc3cc(Cl)ccc3OC)cc2C1=O
14,580 s,Cc1ccnc(Nc2nc(C)c3ccccc3n2)n1
15,1190 s,Cc1ccc(-n2ncc3c(=O)n(Cc4nc(-c5ccccc5)no4)cnc32)cc1Cl
16,645 s,Cc1oc(-c2[nH]ncc2C(=O)N2CCOCC2)cc1S(=O)(=O)NC1CCCC1
17,607 s,COc1cccc(S(=O)(=O)N2CCC3(CC2)c2nccn2CCN3C)c1
18,963 s,CCOc1ccccc1-c1noc(CN2C(=O)COc3ccccc32)n1
19,644 s,O=C1CCCc2c1cc(C(=O)NCc1cccnc1)c(=O)n2-c1ccc(C(F)(F)F)cc1
20,871 s,COc1cc(C2CC(=O)N(CC(=O)N3CCCCC3)c3ccccc3S2)cc(OC)c1OC (centres undefined)
21,635 s,Cc1ccc(-c2cn3c(n2)N(C(=O)C2CCCO2)CCC3)cc1 (centres undefined)
22,882 s,CC1=NS(=O)(=O)N(C)C=C1C(=O)OCc1ccccc1

row,Compound,RP-LC retention time
1,O=C(CCc1nnc2c3cc(-c4ccccc4)nn3ccn12)N1CCC2(CC1)OCCO2,686 s
